One may read the IC50 as the point on the concentration scale where inhibition reaches its midpoint.

A value given as a limit tells only on which side of the number the result lay.

The assay has as its target T1, human HDAC6 enzyme (Homo sapiens, UniProt Q9UBN7).
T1 sequence (Q9UBN7 1-1215): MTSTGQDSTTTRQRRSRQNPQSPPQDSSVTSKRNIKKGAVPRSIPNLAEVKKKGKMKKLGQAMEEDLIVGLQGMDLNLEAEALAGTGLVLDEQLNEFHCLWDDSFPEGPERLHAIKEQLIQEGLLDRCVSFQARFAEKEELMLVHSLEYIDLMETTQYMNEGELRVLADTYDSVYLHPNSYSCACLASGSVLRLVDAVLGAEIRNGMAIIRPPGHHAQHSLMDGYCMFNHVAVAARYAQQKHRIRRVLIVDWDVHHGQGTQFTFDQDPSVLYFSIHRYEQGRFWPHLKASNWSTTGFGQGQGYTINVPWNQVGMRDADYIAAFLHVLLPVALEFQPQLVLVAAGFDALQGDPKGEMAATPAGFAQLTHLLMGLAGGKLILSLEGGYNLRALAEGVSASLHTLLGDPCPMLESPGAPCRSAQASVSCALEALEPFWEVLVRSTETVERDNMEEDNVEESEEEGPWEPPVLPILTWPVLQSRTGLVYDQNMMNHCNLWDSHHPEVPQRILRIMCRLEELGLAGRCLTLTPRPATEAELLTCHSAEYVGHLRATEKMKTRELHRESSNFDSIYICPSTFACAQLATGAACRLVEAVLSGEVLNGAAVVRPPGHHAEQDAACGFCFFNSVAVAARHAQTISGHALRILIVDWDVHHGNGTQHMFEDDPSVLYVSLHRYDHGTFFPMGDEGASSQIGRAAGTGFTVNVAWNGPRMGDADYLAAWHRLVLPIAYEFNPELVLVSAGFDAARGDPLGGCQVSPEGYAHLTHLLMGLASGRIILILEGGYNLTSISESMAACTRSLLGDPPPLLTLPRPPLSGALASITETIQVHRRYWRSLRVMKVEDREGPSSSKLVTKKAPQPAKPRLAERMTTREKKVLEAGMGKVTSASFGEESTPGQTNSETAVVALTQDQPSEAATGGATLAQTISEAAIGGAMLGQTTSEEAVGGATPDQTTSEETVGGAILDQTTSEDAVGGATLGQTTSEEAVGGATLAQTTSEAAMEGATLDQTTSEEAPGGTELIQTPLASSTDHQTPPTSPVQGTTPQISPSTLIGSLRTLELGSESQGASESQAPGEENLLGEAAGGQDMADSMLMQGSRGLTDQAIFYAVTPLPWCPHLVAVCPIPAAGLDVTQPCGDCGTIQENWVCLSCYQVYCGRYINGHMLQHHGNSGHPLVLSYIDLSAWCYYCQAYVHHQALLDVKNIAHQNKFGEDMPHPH
As to the kind of experiment: Fluorescence-based enzyme activity assay. In kind it is biochemical. The following applies: substrate with fluorescent peptide of p53 residues 379-382, 30°C for 1 hour. As for the experimental part: Experimental Example 1: Fluorescence-based enzyme activity assay
In order to measure the inhibitory effect of the compounds on the activity of histone deacetylase 6 (HDAC6), an enzyme activity assay was performed to evaluate the enzyme activity by reacting the human HDAC6 enzyme with a substrate to which a fluorescent peptide of p53 residues 379-382 was attached. The test compounds were dissolved in 100% DMSO at a concentration of 10 mM to prepare a stock solution. A starting concentration of 30 µM was prepared from the stock solution, followed by 1/3 serial dilutions to prepare the test buffer solution. Trichostatin A (TSA)-which is the reference compound used to confirm the validity of the experiment-was serially diluted by 1/3 with the test buffer solution, starting from the highest concentration of 1 µM. To react the test compounds and TSA prepared in the test buffer with the HDAC6 enzyme, they were dispensed into a 96-well black plate and spin-down of the plate was performed. Then, the reaction was carried out at room temperature for 10 minutes. After 10 minutes, the substrate was dispensed, and the plate was sealed. The reaction was carried out at 30°C for 1 hour under light-blocking conditions. Fluorescence values were measured using a plate reader (wavelength: excitation/emission = 360/460 nm). The fluorescence measurements were normalized to the HDAC6 enzyme-treated group as 100% and the untreated group as 0%, respectively. […]
Regarding `O=c1cc(-c2nnc(C(F)F)o2)ccn1CC#Cc1ccccc1` [Example 1, 4-(5-(difluoromethyl)-1,3,4-oxadiazol-2-yl)-1-(3-phenylprop-2-yn-1-yl)pyridin-2(1H)-one], the IC50 is < 100 nM.
`O=c1cc(-c2noc(C(F)(F)F)n2)ccn1CC#Cc1ccccc1` [Example 2, 1-(3-phenylprop-2-yn-1-yl)-4-(5-(trifluoromethyl)-1,2,4-oxadiazol-3-yl)pyridin-2(1H)-one] returned an IC50 of 500 to 1000 nM.
Regarding `O=c1cc(-c2noc(C(F)(F)F)n2)ccn1CC#Cc1ccncc1` [Example 3, 1-(3-(pyridin-4-yl)prop-2-yn-1-yl)-4-(5-(trifluoromethyl)-1,2,4-oxadiazol-3-yl)pyridin-2(1H)-one], the IC50 fell in the range of 100 to 500 nM.
With `O=c1cc(-c2noc(C(F)(F)F)n2)ccn1CC#Cc1cccnc1` [Example 4, 1-(3-(pyridin-3-yl)prop-2-yn-1-yl)-4-(5-(trifluoromethyl)-1,2,4-oxadiazol-3-yl)pyridin-2(1H)-one], the IC50 lay in the range of 100 to 500 nM.
For `O=c1cc(-c2noc(C(F)(F)F)n2)ccn1CC#Cc1ccccn1` [Example 5, 1-(3-(pyridin-2-yl)prop-2-yn-1-yl)-4-(5-(trifluoromethyl)-1,2,4-oxadiazol-3-yl)pyridin-2(1H)-one], the IC50 is 100 to 500 nM.
On to `O=c1cc(-c2noc(C(F)(F)F)n2)ccn1CC#Cc1ccccc1F` [Example 6, 1-(3-(2-fluorophenyl)prop-2-yn-1-yl)-4-(5-(trifluoromethyl)-1,2,4-oxadiazol-3-yl)pyridin-2(1H)-one], for which the IC50 lay in the range of 500 to 1000 nM.
For `O=c1cc(-c2nnc(C(F)F)o2)ccn1CC#Cc1ccncc1` [Example 8, 4-(5-(difluoromethyl)-1,3,4-oxadiazol-2-yl)-1-(3-(pyridin-4-yl)prop-2-yn-1-yl)pyridin-2(1H)-one], the IC50 was < 100 nM.
`O=c1cc(-c2nnc(C(F)F)o2)ccn1CC#Cc1cccnc1` [Example 9, 4-(5-(difluoromethyl)-1,3,4-oxadiazol-2-yl)-1-(3-(pyridin-3-yl)prop-2-yn-1-yl)pyridin-2(1H)-one]: the IC50 is < 100 nM.
As for `O=c1cc(-c2nnc(C(F)F)o2)ccn1CC#Cc1ccccn1` [Example 10, 4-(5-(difluoromethyl)-1,3,4-oxadiazol-2-yl)-1-(3-(pyridin-2-yl)prop-2-yn-1-yl)pyridin-2(1H)-one], the IC50 was < 100 nM.
Turning to `O=c1cc(-c2nnc(C(F)F)o2)ccn1CC#Cc1ccc(F)cc1` [Example 11, 4-(5-(difluoromethyl)-1,3,4-oxadiazol-2-yl)-1-(3-(4-fluorophenyl)prop-2-yn-1-yl)pyridin-2(1H)-one], the IC50 was < 100 nM.
In the case of `O=c1cc(-c2nnc(C(F)F)o2)ccn1CC#Cc1cccc(F)c1` [Example 12, 4-(5-(difluoromethyl)-1,3,4-oxadiazol-2-yl)-1-(3-(3-fluorophenyl)prop-2-yn-1-yl)pyridin-2(1H)-one], the IC50 was < 100 nM.
For `O=c1cc(-c2nnc(C(F)F)o2)ccn1CC#Cc1ccccc1F` [Example 13, 4-(5-(difluoromethyl)-1,3,4-oxadiazol-2-yl)-1-(3-(2-fluorophenyl)prop-2-yn-1-yl)pyridin-2(1H)-one], the IC50 is < 100 nM.
Take `O=c1cc(-c2nnc(C(F)F)o2)ccn1CC#Cc1ccc(Cl)cc1` [Example 14, 1-(3-(4-chlorophenyl)prop-2-yn-1-yl)-4-(5-(difluoromethyl)-1,3,4-oxadiazol-2-yl)pyridin-2(1H)-one]: the IC50 is < 100 nM.
For `O=c1cc(-c2nnc(C(F)F)o2)ccn1CC#Cc1ccccc1Cl` [Example 16, 1-(3-(2-chlorophenyl)prop-2-yn-1-yl)-4-(5-(difluoromethyl)-1,3,4-oxadiazol-2-yl)pyridin-2(1H)-one], the IC50 is < 100 nM.
Regarding `COc1cccc(C#CCn2ccc(-c3nnc(C(F)F)o3)cc2=O)c1` [Example 21, 4-(5-(difluoromethyl)-1,3,4-oxadiazol-2-yl)-1-(3-(3-methoxyphenyl)prop-2-yn-1-yl)pyridin-2(1H)-one], the IC50 is < 100 nM.
On to `O=c1cc(-c2nnc(C(F)F)o2)ccn1CC#Cc1cccc(Cl)n1` [Example 22, 1-(3-(6-chloropyridin-2-yl)prop-2-yn-1-yl)-4-(5-(difluoromethyl)-1,3,4-oxadiazol-2-yl)pyridin-2(1H)-one], for which the IC50 was < 100 nM.
The result for `Cc1cncc(C#CCn2ccc(-c3nnc(C(F)F)o3)cc2=O)c1` [Example 29, 4-(5-(difluoromethyl)-1,3,4-oxadiazol-2-yl)-1-(3-(5-methylpyridin-3-yl)prop-2-yn-1-yl)pyridin-2(1H)-one] reads < 100 nM; that for `CS(=O)(=O)c1cccc(C#CCn2ccc(-c3nnc(C(F)F)o3)cc2=O)c1` [Example 32, 4-(5-(difluoromethyl)-1,3,4-oxadiazol-2-yl)-1-(3-(3-(methylsulfonyl)phenyl)prop-2-yn-1-yl)pyridin-2(1H)-one], < 100 nM.
On to `O=c1cc(-c2nnc(C(F)F)o2)ccn1CC#Cc1cccc(Cl)c1F` [Example 33, 1-(3-(3-chloro-2-fluorophenyl)prop-2-yn-1-yl)-4-(5-(difluoromethyl)-1,3,4-oxadiazol-2-yl)pyridin-2(1H)-one], for which the half-maximal inhibitory concentration (IC50) is < 100 nM.
In the case of `O=c1cc(-c2nnc(C(F)F)o2)ccn1CC#Cc1ccc(F)c(Cl)c1` [Example 34, 1-(3-(3-chloro-4-fluorophenyl)prop-2-yn-1-yl)-4-(5-(difluoromethyl)-1,3,4-oxadiazol-2-yl)pyridin-2(1H)-one] it was < 100 nM.
In the case of `O=c1cc(-c2nnc(C(F)F)o2)ccn1CC#Cc1cc(F)cc(Cl)c1` [Example 35, 1-(3-(3-chloro-5-fluorophenyl)prop-2-yn-1-yl)-4-(5-(difluoromethyl)-1,3,4-oxadiazol-2-yl)pyridin-2(1H)-one] it was < 100 nM; in that of `O=c1cc(-c2nnc(C(F)F)o2)ccn1CC#Cc1ccc2scnc2c1` [Example 40, 1-(3-(benzo[d]thiazol-5-yl)prop-2-yn-1-yl)-4-(5-(difluoromethyl)-1,3,4-oxadiazol-2-yl)pyridin-2(1H)-one], 100 to 500 nM; in that of `Cc1nc2ccc(C#CCOc3cc(-c4nnc(C(F)F)o4)ccn3)cc2s1` [Example 41], 500 to 1000 nM.
Take `Cc1ncc(C#CCn2ccc(-c3nnc(C(F)F)o3)cc2=O)[nH]1` [Example 42, 4-(5-(difluoromethyl)-1,3,4-oxadiazol-2-yl)-1-(3-(2-methyl-1H-imidazol-5-yl)prop-2-yn-1-yl)pyridin-2(1H)-one]: the IC50 is < 100 nM.
For the compound `O=c1cc(-c2nnc(C(F)F)o2)ccn1CC#Cc1ccsc1` [Example 43, 4-(5-(difluoromethyl)-1,3,4-oxadiazol-2-yl)-1-(3-(thiophen-3-yl)prop-2-yn-1-yl)pyridin-2(1H)-one], the IC50 is < 100 nM.

These data come from patent EP4685143A1 (Vivozon,Inc., priority 2023, dated 2024).
